Experiments:
[1] = test system: Jassids; assay: Synergistic insecticidal effect of the combination, mortality of Jassids (Table 3); type: in vivo
Excerpt: (§1) Evaluation of the synergistic insecticidal effect of the composition comprising Diafenthiuron, Pyriproxyfen and an insecticide Dinotefuran can be established by using any synergistic insecticidal composition prepared by the process described in the above examples. For these evaluations one or more of the synergistic insecticidal compositions prepared in the examples are used here.
(§2) Synergism can be calculated by using the Colby's method i.e. the expected (or predicted) response of the combination is calculated by taking the product of the observed response for each individual component of the combination when applied alone divided by 100 and subtracting this value from the sum of observed response for each component when applied alone. Synergism of the combination is then determined by comparing the observed response of the combination to the expected (or predicted) response as calculated from the observed response of each individual component alone. If the observed response of the combination is greater than the expected (or predicted) response then the combination is said to be synergistic and falls within the definition of synergistic effect. (Colby, S. R., Weeds, 1967(15), p. 20-22).

[2] = test system: White fly; assay: Synergistic insecticidal effect of the combination, mortality of White fly (Table 2); type: in vivo
Excerpt: as §1, §2

`CC(COc1ccc(Oc2ccccc2)cc1)Oc1ccccn1` (racemic) [Pyriproxyfen, 4-phenoxyphenyl (RS)-2-(2-pyridyloxy)propyl ether] was tested, and the “Observed Mortality %” value ([1]; Pyriproxyfen 72 ppm) was 21.70%, the “Observed Mortality %” value ([1]; Pyriproxyfen 96 ppm) was 29.20% and the “Observed Mortality %” value ([1]; Pyriproxyfen 120 ppm) was 35.50%. For the same compound, the “Observed Mortality %” value ([1]; Pyriproxyfen 144 ppm) was 37.90%, the “Observed Mortality %” value ([2]; Pyriproxyfen 72 ppm) was 30.70% and the “Observed Mortality %” value ([2]; Pyriproxyfen 96 ppm) was 38.10%. The “Observed Mortality %” value ([2]; Pyriproxyfen 120 ppm) was 43.70% and the “Observed Mortality %” value ([2]; Pyriproxyfen 144 ppm) was 46.60%.

In the case of `CN/C(=N/CC1CCOC1)N[N+](=O)[O-]` (stereo not drawn) [Dinotefuran, 2-methyl-1-nitro-3-[(tetrahydro-3-furanyl)methyl]guanidine], the “Observed Mortality %” value ([1]; Dinotefuran 45 ppm) is reported as 65.60%, the “Observed Mortality %” value ([1]; Dinotefuran 60 ppm) is reported as 73.40% and the “Observed Mortality %” value ([1]; Dinotefuran 75 ppm) is reported as 79.00%. The “Observed Mortality %” value ([1]; Dinotefuran 90 ppm) was 83.80%, the “Observed Mortality %” value ([2]; Dinotefuran 45 ppm) was 35.10% and the “Observed Mortality %” value ([2]; Dinotefuran 60 ppm) was 45.50%. The “Observed Mortality %” value ([2]; Dinotefuran 75 ppm) was 52.00% and the “Observed Mortality %” value ([2]; Dinotefuran 90 ppm) was 61.40%.

For `CC(C)c1cc(Oc2ccccc2)cc(C(C)C)c1NC(=S)NC(C)(C)C` [Diafenthiuron, 1-tert-butyl-3-(2,6-di-isopropyl-4-phenoxyphenyl)thiourea], the “Observed Mortality %” value ([1]; Diafenthiuron 120 ppm) was 28.90%, the “Observed Mortality %” value ([1]; Diafenthiuron 240 ppm) was 42.00% and the “Observed Mortality %” value ([1]; Diafenthiuron 360 ppm) was 48.50%. The “Observed Mortality %” value ([1]; Diafenthiuron 480 ppm) was 57.40%, the “Observed Mortality %” value ([2]; Diafenthiuron 120 ppm) was 38.40% and the “Observed Mortality %” value ([2]; Diafenthiuron 240 ppm) was 48.50%. The “Observed Mortality %” value ([2]; Diafenthiuron 360 ppm) was 57.30% and the “Observed Mortality %” value ([2]; Diafenthiuron 480 ppm) was 61.80%.
